Reference: publication PMC10006239, “C–N bond formation by a polyketide synthase” (Nature Communications, 2023)
Values belong to the compound of their own block, whether it stands above or below them.

How the values were obtained:
CalA3 [1] = molecular target: T1, CalA3 (Streptomyces chartreusis, UniProt A0A2N9BJK0); assay: HPLC turnover assay at […] nm, products confirmed by LC-HRMS and NMR; format: biochemical; conditions: 5 µM CalA3, 0.15 mM SNAC-N1, 0.5 mM 3-HAA, 25 mM Tricine pH 7.5, 30 °C, 13 h; amidation and hydrolysis
T1 construct: gene SCNRRL3882_6975; full length, gene 5178 bp, C-terminal 6xHis tag (pET28a), E. coli BAP1; about 180 kDa per chain, homodimer about 360 kDa; domains DD-KS-LD-AT-DH-psiKR/KR, no ACP
T1 sequence (A0A2N9BJK0 1-1727): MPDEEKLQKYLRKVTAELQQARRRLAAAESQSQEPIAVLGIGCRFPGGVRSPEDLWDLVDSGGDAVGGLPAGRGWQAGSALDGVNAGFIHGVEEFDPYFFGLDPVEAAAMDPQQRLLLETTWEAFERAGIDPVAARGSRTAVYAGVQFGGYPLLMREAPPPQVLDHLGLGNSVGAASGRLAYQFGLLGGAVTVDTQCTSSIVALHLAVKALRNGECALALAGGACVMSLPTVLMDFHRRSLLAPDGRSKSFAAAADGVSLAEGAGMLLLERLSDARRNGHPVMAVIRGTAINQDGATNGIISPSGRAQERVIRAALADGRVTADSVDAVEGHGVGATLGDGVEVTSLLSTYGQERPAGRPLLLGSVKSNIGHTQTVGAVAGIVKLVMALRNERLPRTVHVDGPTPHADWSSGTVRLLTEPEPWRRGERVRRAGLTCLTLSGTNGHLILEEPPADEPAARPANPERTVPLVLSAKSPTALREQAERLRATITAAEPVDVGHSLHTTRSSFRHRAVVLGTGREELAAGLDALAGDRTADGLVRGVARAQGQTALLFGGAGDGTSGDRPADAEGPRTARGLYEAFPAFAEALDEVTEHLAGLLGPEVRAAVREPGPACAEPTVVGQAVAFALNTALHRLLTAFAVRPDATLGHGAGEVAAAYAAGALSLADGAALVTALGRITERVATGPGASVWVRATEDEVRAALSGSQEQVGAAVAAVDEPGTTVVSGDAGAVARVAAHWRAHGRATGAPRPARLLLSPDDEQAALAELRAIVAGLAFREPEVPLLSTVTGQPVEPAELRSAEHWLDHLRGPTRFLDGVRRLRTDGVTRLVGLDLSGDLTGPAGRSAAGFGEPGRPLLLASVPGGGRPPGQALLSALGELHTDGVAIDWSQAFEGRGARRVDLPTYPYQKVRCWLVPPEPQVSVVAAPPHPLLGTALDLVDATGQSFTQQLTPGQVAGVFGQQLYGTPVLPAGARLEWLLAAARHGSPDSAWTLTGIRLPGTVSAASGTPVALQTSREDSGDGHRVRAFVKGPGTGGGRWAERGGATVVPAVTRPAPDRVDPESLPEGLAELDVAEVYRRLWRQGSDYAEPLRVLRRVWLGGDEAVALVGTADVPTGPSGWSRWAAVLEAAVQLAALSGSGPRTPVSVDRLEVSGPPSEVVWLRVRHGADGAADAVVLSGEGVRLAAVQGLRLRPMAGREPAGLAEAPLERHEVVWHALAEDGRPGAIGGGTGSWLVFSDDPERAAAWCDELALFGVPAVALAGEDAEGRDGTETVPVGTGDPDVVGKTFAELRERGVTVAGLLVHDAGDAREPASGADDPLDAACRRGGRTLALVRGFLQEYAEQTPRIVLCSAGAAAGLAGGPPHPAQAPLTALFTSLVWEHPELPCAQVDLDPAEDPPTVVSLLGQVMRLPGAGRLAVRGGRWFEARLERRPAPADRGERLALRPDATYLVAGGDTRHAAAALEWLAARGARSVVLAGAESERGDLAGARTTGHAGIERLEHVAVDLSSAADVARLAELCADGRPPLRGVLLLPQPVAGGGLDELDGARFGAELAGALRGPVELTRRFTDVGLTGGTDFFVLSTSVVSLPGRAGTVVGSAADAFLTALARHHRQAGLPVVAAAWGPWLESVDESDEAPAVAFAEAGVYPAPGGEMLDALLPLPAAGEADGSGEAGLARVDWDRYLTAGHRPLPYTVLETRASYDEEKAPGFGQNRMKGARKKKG

CalA3 [2] = molecular target: T1, CalA3; assay: cryo-EM structure, […] Å; format: binding; conditions: KS substrate tunnel, chain A only; specimen also contained 3-HAA; PDB id assigned by order of listing
CalA3 [3] = molecular target: T1, CalA3; assay: cryo-EM structure, […] Å; format: binding; conditions: KS substrate tunnel, chains A and B; specimen also contained 3-HAA; PDB id assigned by order of listing
[4] = molecular target: CalA3 (Streptomyces chartreusis NRRL 3882); assay: cryo-EM structure; purified CalA3 at ~4 mg/mL in 50 mM Tricine pH 8.0 with 1 mM 3-HAA and SNAC-N1 (further samples at ~4.5 mg/mL with amidation or hydrolysis product and 3-HAA); Titan Krios 300 kV, K3 detector; homodimer

Compound: CC(=O)NCCSC(=O)CCCCCCCCCC(=O)c1ccc[nH]1 [compound 1, SNAC-N1]
HPLC turnover assay at 290 nm, products confirmed by LC-HRMS and NMR (CalA3 [1]): SNAC-N1 and 3-HAA were incubated with CalA3, and a total of three peaks were detected

Compound: O=C(O)CCCCCCCCCC(=O)c1ccc[nH]1 [compound 2, 11-oxo-11-(pyrrol-2-yl) undecanoic acid]
cryo-EM structure, 3.97 Å (CalA3 [2]): the hydrolysis product was captured only in the KS domain of chain A

Compound: O=C(CCCCCCCCCC(=O)c1ccc[nH]1)Nc1c(O)cccc1C(=O)O [compound 3, amidation product]
cryo-EM structure, 3.84 Å (CalA3 [3]): the amidation products were captured in the KS domains of both chain A and B

stoichiometry N [4]: 2
Compound: CalA3 (enzyme)
